Experiments:
[1] = tested on: Mus musculus; assay: In vivo inhibition of PI3Kdelta in ovalbumin-sensitized OT-2 transgenic C57BL/6-Tg-(Tcratcrb)425Cbn/Crl mouse assessed as reduction in S6RP phosphorylation at Ser235/236 residues in bronchoalveolar lung lavage administered […] 18 hrs prior to anti-CD3 stimulation measured after 6 hrs; format: functional, organism-based
[2] = Volume of distribution at steady state in iv or po dosed rat; format: ADME, organism-based; conditions: in vivo, read-out: Vdss
[3] = biological target: PI3-kinase p110-alpha/p85-alpha (Homo sapiens, UniProt P42336); assay: Inhibition of recombinant human His6-tagged PI3K p110alpha/p85alpha using DiC8-PIP2 as substrate preincubated for 15 mins followed by substrate addition measured after 60 mins by ADP-Glo assay; format: protein-complex assay
[4] = biological target: Phosphatidylinositol 4,5-bisphosphate 3-kinase catalytic subunit gamma isoform (Homo sapiens, UniProt P48736); assay: Inhibition of recombinant human His6-tagged PI3Kgamma (144 to 1102 residues) using DiC8-PIP2 as substrate preincubated for 15 mins followed by substrate addition measured after 60 mins by ADP-Glo assay
[5] = Dissociation constant, basic pKa of compound; format: physicochemical
[6] = biological target: hERG (KCNH2) (Homo sapiens, UniProt Q12809); assay: Inhibition of human ERG at 11 uM relative to control
[7] = Lipophilicity, log D of the compound; format: physicochemical; conditions: octanol/water
[8] = biological target: T1, Phosphatidylinositol 4,5-bisphosphate 3-kinase catalytic subunit delta isoform (Homo sapiens, UniProt O00329); assay: Inhibition of PI3Kdelta in human JeKo1 cells assessed as reduction in Akt phosphorylation at Ser473 residue preincubated for 60 mins followed by Anti-IgM stimulation for 10 mins by TR-FRET assay; format: cell-based
T1 sequence (O00329 whole entry): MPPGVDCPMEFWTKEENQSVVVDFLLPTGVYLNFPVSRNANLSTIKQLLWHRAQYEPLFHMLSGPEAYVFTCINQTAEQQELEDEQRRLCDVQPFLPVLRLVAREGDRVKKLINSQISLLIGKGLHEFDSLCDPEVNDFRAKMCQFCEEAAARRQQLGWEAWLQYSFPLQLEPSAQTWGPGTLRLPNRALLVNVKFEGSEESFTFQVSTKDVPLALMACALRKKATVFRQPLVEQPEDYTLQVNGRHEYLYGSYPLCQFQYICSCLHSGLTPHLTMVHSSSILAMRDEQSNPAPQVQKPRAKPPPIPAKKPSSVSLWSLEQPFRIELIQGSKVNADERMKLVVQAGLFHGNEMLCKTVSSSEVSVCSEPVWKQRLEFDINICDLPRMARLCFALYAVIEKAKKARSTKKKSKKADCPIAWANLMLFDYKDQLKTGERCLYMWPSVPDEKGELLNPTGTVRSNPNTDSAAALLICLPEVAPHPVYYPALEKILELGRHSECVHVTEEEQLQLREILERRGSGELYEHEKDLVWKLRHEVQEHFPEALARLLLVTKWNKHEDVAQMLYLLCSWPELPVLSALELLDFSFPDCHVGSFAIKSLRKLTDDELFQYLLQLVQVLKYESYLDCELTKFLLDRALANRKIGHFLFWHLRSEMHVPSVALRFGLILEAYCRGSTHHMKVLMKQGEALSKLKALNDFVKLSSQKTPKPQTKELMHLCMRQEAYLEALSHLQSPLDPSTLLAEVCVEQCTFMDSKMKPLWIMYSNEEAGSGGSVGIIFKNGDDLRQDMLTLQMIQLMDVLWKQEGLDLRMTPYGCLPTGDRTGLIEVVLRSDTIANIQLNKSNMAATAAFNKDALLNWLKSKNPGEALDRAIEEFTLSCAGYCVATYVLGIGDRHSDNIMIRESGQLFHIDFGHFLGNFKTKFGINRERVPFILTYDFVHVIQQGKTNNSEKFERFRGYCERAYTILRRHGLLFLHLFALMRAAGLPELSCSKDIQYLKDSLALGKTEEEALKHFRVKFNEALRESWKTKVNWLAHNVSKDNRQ

[9] = Metabolic stability in it dosed rat lungs assessed as compound remaining at 24 hrs post dose by LC-MS/MS analysis; format: ADME, organism-based; conditions: lung, inhaled or intranasal, read-out: Stability
[10] = Dissociation constant, acidic pKa of compound; format: physicochemical
[11] = biological target: PI3K p110 beta/p85 alpha (Homo sapiens, UniProt P42338); assay: Inhibition of recombinant human His6-tagged PI3K p110beta/p85alpha using DiC8-PIP2 as substrate preincubated for 15 mins followed by substrate addition measured after 60 mins by ADP-Glo assay; format: protein-complex assay
[12] = Clearance in iv dosed rat; format: ADME, organism-based; conditions: in vivo
[13] = Oral bioavailability in rat; format: ADME, organism-based; conditions: in vivo
[14] = biological target: PI3-kinase p110-delta/p85-alpha (Homo sapiens, UniProt O00329); assay: Inhibition of recombinant human His6-tagged PI3K p110delta/p85alpha using DiC8-PIP2 as substrate preincubated for 15 mins followed by substrate addition measured after 60 mins by ADP-Glo assay; format: protein-complex assay
[15] = Terminal half life in it dosed rat lung by LC-MS/MS analysis; format: ADME, organism-based; conditions: inhaled or intranasal, read-out: beta t1/2 (converted)
[16] = Half life in iv or po dosed rat; format: ADME, organism-based; conditions: in vivo

Phosphatidylinositol 4,5-bisphosphate 3-kinase catalytic subunit gamma isoform, sequence (P48736 whole entry, the tested form may be a part, canonical isoform): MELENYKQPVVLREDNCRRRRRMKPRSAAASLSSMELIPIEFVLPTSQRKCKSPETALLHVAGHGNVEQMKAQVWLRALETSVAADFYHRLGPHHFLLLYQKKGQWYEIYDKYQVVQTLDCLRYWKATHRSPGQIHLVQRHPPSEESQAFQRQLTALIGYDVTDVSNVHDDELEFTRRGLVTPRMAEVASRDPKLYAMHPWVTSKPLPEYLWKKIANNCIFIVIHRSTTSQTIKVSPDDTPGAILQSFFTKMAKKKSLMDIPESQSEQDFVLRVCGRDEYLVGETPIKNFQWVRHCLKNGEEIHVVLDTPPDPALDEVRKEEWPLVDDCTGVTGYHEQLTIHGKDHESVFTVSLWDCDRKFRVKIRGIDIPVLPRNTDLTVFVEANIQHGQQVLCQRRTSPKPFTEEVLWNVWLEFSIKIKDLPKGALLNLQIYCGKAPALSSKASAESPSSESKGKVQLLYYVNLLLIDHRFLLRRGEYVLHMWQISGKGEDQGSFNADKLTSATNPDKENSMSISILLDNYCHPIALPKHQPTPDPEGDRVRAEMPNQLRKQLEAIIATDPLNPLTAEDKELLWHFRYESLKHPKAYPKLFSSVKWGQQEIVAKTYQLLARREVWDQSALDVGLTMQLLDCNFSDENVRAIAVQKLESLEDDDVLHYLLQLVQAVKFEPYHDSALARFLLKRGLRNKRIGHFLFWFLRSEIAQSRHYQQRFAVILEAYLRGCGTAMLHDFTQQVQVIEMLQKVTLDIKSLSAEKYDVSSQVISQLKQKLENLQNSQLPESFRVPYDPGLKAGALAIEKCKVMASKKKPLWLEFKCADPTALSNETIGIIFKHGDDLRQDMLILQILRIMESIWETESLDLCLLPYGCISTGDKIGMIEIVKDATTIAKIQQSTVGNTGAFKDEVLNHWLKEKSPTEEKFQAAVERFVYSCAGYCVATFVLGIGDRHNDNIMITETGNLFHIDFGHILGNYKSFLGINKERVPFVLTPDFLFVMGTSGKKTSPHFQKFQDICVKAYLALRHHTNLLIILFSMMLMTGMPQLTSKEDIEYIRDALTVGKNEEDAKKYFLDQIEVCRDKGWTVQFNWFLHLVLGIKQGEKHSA
hERG (KCNH2), sequence (Q12809 whole entry): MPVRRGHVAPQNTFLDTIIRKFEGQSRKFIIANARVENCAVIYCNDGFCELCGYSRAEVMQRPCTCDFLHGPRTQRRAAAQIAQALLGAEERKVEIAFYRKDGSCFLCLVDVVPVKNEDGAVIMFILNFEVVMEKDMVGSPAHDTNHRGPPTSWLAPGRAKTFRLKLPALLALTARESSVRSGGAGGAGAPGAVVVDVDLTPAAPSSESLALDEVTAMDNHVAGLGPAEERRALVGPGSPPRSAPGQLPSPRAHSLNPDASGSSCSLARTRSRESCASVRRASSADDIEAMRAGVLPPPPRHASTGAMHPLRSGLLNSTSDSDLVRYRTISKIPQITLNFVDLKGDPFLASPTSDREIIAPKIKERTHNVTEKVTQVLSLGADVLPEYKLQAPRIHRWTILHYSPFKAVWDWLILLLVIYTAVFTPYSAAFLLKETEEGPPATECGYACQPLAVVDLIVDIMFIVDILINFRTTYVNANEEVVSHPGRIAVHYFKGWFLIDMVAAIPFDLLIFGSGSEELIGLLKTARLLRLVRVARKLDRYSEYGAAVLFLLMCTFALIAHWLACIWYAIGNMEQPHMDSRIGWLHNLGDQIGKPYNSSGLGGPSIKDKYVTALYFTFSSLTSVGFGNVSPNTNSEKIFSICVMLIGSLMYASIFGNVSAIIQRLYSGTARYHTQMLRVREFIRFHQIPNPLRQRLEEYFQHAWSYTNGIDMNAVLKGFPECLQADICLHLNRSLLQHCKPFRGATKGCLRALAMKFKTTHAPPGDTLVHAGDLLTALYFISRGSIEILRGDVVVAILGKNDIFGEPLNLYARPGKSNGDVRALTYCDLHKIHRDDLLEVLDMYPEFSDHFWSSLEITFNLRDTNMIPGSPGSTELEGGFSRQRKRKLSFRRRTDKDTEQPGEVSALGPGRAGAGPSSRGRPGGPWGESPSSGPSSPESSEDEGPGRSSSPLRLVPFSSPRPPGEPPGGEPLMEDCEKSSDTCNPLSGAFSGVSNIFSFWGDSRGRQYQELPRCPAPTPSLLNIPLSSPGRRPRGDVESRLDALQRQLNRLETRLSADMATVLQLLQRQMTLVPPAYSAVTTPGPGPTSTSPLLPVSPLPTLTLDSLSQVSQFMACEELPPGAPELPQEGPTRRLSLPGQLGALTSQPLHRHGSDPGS
PI3-kinase p110-alpha/p85-alpha, sequence (P27986 whole entry, the tested form may be a part, canonical isoform): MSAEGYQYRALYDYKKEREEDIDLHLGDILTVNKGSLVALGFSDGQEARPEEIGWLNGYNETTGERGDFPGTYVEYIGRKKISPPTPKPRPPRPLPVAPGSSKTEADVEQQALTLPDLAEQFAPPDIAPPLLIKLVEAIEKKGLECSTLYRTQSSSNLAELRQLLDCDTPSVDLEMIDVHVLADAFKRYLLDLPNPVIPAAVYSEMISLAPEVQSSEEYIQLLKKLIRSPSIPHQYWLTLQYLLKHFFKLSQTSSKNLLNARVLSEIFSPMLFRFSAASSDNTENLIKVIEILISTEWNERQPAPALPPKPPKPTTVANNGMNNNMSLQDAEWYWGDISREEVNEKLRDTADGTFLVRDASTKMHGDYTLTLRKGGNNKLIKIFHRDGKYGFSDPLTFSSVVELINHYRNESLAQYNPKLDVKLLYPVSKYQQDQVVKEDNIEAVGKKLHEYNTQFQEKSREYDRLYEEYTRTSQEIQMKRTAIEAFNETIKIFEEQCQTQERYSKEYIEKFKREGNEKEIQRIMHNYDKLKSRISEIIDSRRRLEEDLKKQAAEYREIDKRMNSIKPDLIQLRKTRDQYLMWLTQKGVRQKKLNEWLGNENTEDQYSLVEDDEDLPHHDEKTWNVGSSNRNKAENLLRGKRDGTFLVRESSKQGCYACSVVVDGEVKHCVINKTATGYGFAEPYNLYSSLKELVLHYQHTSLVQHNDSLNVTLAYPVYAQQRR
PI3-kinase p110-alpha/p85-alpha, sequence (P42336 whole entry, the tested form may be a part, canonical isoform): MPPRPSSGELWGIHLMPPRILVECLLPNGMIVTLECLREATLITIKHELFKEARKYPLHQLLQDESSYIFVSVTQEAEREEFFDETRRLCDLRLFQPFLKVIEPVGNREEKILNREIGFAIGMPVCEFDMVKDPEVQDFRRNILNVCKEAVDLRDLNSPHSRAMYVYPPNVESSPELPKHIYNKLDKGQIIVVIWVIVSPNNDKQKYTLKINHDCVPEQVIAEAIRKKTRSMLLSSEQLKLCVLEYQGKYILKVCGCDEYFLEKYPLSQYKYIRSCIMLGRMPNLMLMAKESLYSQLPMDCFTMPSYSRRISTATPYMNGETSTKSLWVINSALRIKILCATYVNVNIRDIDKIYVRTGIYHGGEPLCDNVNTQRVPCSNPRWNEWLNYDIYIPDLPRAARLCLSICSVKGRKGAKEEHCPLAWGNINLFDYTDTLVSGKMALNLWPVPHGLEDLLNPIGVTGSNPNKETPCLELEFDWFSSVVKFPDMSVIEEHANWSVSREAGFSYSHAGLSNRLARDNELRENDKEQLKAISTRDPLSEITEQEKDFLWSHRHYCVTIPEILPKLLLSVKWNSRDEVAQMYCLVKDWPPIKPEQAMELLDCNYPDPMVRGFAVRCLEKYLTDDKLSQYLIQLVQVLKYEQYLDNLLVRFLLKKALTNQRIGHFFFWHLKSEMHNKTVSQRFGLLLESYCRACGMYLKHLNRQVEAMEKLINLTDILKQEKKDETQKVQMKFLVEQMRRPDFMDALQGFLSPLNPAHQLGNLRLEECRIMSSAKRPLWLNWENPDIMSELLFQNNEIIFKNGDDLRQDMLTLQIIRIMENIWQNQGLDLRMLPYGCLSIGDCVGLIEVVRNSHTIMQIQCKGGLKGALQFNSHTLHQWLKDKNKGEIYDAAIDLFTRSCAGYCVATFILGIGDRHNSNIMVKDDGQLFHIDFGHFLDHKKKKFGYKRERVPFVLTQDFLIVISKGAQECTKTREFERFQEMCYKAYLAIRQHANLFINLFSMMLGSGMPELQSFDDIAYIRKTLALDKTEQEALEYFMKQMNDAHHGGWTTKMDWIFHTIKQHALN
PI3-kinase p110-delta/p85-alpha, sequence (P27986 whole entry, one chain of several): as the sequence (P27986 whole entry, the tested form may be a part, canonical isoform) above

| Vd [2] | IC50 [3] | IC50 [4] | pKa [5] | logD [7] | IC50 [8] | remaining at 24 h [9] | pKa [10] | IC50 [11] | clearance [12] | bioavailability [13] | IC50 [14] | half-life [15] | half-life [16] | SMILES | inhibition [1] | inhibition at 11 µM [6] |
| --- | --- | --- | --- | --- | --- | --- | --- | --- | --- | --- | --- | --- | --- | --- | --- | --- |
| 88 L/kg | ≥ 0.631 µM | ≥ 0.2 µM | 6.8 | 1.7 | 0.00126 µM | 2.8% | 9.7 | 0.0794 µM | 9 L/h/kg | < 1% | 0.000631 µM | 9.9 h | 11 h | Cc1csc2cc([C@H](C)Nc3ncnc(N)c3C#N)c(-c3cccc(CN4CCC(N(C)CC(C)C)CC4)c3)c(=O)n12 | Dose-dependent effect | < 20% |
| 12 L/kg | ≥ 0.631 µM | ≥ 0.2 µM | 6.5 | 0.5 | 0.01 µM | 4.8% | 9.5 | 0.0631 µM | 3.42 L/h/kg | < 1% | 0.000501 µM | 23.2 h | 12 h | Cc1csc2cc([C@H](C)Nc3ncnc(N)c3C#N)c(-c3cccc(CN4CCC(N(C)C)CC4)c3)c(=O)n12 | Dose-dependent effect | < 20% |

— ChEMBL document CHEMBL4014331, “Design and Synthesis of Soluble and Cell-Permeable PI3Kδ Inhibitors for Long-Acting Inhaled Administration” (J Med Chem, 2017)
